From article PMC8125507, “Molecular Mechanism of Thymidylate Synthase Inhibition by N^4-Hydroxy-dCMP in View of Spectrophotometric and Crystallographic Studies” (International Journal of Molecular Sciences, 2021)

Legend:
Type in all cases: binding
CeTS = target: T1, CeTS (Caenorhabditis elegans, UniProt Q9Y052); experiment: X-ray crystal structure, soaked crystal, […] Å; settings: apoenzyme crystal soaked with 36 mM ligand ca. 80 min, pH 5.6; no folate; active site of both subunits, non-covalent
T1 construct: recombinant, non-phosphorylated fraction; dimer; catalytic Cys197; residues 24-312 modelled

TspTS = target: T2, TspTS (Trichinella spiralis, UniProt Q9NDD3); experiment: X-ray crystal structure, co-crystal, […] Å; settings: co-crystallized with meTHF, pH 7.1; covalent to Cys189 Sγ via pyrimidine C(6); bound form reduced at C(5); no folate seen
T2 construct: gene ts; recombinant, non-phosphorylated fraction; dimer; catalytic Cys189; residues 18-307 modelled in part

mTS = target: T3, mTS (Mus musculus, UniProt P07607); experiment: X-ray crystal structure, co-crystal soaked with meTHF, […] Å; settings: pH 6.7; folate derivative also bound; active site of both subunits, non-covalent
T3 construct: gene Tyms; recombinant, non-phosphorylated fraction for crystals; dimer; catalytic Cys189; residues 21-307 modelled
T3 sequence (P07607 whole entry, the tested form may be a part): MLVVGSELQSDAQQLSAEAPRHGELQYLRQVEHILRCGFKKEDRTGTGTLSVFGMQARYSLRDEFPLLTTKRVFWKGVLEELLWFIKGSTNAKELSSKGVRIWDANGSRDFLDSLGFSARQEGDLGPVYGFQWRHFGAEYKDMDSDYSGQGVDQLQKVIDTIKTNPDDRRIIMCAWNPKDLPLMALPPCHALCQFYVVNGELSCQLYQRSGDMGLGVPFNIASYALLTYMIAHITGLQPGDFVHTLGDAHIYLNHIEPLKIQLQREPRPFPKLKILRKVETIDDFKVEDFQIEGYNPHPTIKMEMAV

T2 sequence (Q9NDD3 entry or part of it): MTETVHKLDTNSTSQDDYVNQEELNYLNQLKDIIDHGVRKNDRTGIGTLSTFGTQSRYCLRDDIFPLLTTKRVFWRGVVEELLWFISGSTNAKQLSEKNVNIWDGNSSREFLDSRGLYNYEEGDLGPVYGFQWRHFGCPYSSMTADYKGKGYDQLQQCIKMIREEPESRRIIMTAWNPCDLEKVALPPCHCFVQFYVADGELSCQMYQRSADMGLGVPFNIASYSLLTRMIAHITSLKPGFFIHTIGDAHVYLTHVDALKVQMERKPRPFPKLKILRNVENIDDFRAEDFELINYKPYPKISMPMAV
T1 sequence (Q9Y052 entry or part of it): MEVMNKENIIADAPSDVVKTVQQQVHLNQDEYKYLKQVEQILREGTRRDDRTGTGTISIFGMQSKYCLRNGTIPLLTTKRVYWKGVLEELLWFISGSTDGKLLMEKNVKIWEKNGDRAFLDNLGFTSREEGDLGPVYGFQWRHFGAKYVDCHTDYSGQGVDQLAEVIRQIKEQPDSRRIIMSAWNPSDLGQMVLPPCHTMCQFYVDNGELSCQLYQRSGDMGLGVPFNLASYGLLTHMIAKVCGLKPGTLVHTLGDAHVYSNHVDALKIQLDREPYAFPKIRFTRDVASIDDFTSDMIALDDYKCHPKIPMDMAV

O=c1nc(NO)ccn1[C@H]1C[C@H](O)[C@@H](COP(=O)(O)O)O1 [N^4-OH-dCMP, N^4-hydroxy-2′-deoxycytidine 5′-monophosphate]
X-ray crystal structure, soaked crystal, 2.8 Å (CeTS): with N^4-OH-dCMP molecules in both active sites refined with full occupancy | X-ray crystal structure, co-crystal, 1.18 Å (TspTS): a clear electron density was present, identified as the N^4-OH-dCMP molecule | X-ray crystal structure, co-crystal soaked with meTHF, 2.13 Å (mTS): N^4-OH-dCMP molecules are modeled with full occupancy
